Values after ≈ are worked out from the molar mass of the structure shown.

The target of data set [1] is T1, HRASG12V-GTPγS (Homo sapiens, UniProt P01112, G12V).
T1 construct: expression of HRAS (1-166) HRAS^G12V or KRAS^G12V cDNA cloned into the pGEX-2T vector; GST (N); made in house; host or cells: E. coli C41(DE3)
The data set can be described thus: waterLOGSY NMR titration for Kd. The class given is binding. Here is the method:
(§1) The waterLOGSY NMR method[35] was used to measure RAS ligand interaction. WaterLOGSY experiments were conducted at a ^1H frequency of 600 MHz using a Bruker Avance spectrometer equipped with a BBI probe. All experiments were conducted at 298 K, 3 mm diameter NMR tubes with a sample final volume of 200 µl was used in all experiments. Solutions were buffered using an H2O 10 mM PBS, 5 mM MgCl2 buffer corrected to pH 7.4. The sample preparation is exemplified as follows, the compound (10 µl of a […] solution in DMSO-d6) was added to an eppendorf before sequential addition of the H2O PBS buffer (163.6 µl), D2O (20 µl), and protein (6.4 µl, 311.8 µM). The resulting solution was spun to ensure full mixing and transferred to a 3 mm NMR tube before running the experiment. […]
NMR spectra from the Abd-2 titration ranging from 50 to 400μM compound. The dissociation constant of Abd-2 binding to HRASG12V-GTPγS was determined from the curve generated by plotting the reduction of the NMR signal from a selected peak (depicted in green) during the compound titration against the protein. […]

Data set [2] relates to KRAS-GDP. Put plainly: waterLOGSY NMR binding to GDP form. As for the experimental part: as §1, with “experiment. For a competition experiment using Y6-scFv or VH, the preparation was carried out in a similar manner; the compound (10 µl of a 10 mM solution in DMSO-d6) was added to an eppendorf before sequential addition of the H2O PBS buffer (146.4 µl), D2O (20 µl), protein (6.4 µl, 311.8 µM) and Y6-ScFv (17.2 µl, 116.6 µM) with a ratio of 5.5:1:1. The resulting solution was spun and transferred to a 3 mm NMR tube before the run.” for “experiment.”
Supplementary Figure 3: Abd-2 WaterLOGSY NMR with and without anti RAS-scFV Abd-2 was analyzed by waterLOGSY. […]

A short description of data set [3]: Solubility. The class given is physicochemical.
In data set [4] the test system is ERK1/2 phosphorylation in DLD-1 cells (KRAS^G13D). Put plainly: Biomarker phosphorylation assay, pERK, DLD-1. As to conditions: DLD-1, 2-20 μM, 3 h, EGF 10 min. It is filed as cell-based, human. As for the experimental part:
(§2) Fig. 5 Abd-7 results on RAS-dependent signalling pathways and cell viability. a, b DLD-1 (a) or H358 (b) cells were serum-starved for 24 h, incubated in mono-layer with Abd-7 in a range from 2, 5, 10 and 20 μM for 3 h and stimulated with EGF 10 min. Proteins were extracted and separated by SDS-PAGE and transferred to membranes for Western analysis with anti-pAKT, anti-pERK, anti-pan AKT and anti-pan ERK. Anti-cyclophilin B antibody was the loading control. Signal was developed using standard ECL. c–e Effects of compounds Abd-2, Abd-4, Abd-5, Abd-6, and Abd-7 on the viability of human cancer cells lines was assessed for a 2-D culture of DLD-1 (mutant KRAS^G13D) cells and HT1080 cells (mutant NRAS^Q61K). The cells were treated with a dose range from 0 μM to 20 μ and incubated for 72 h when cell viability was assessed using CellTitreGlo. […] Each experiment was repeated at least three times (a, b) and four times (c, d). Where error bars are presented, they correspond to mean values ± SD of biological repeats
(§3) A total of 450,000 DLD1 or 640,000 H358 cells were seeded per well of a six well plate. Approximately, 20 h later, the medium was removed, the cells washed twice with PBS and DMEM without FBS was added and left for 24 h. […] Cell lysates were sonicated with a Branson Sonifier and the protein concentrations determined by using the Pierce BCA protein assay kit (Thermo-Fisher). […]

Data set [5] has as its system ERK1/2 phosphorylation in H358 cells (KRAS^G12C). The data set can be described thus: Biomarker phosphorylation assay, pERK, H358. The class given is cell-based, human. Conditions: H358, 2-20 μM, 3 h, EGF 10 min. Here is the method: as §2, §3

For orientation: Kd means the constant that tells how readily two partners part at equilibrium. In general, solubility refers to the dissolved amount per volume that the medium holds. In turn, `O=C(NCC1COc2ccccc2O1)c1ccco1` (stereo not drawn) [Abd-2] gave a ligand efficiency in data set [1] of 0.26. The Kd in data set [1] (waterLOGSY titration 50 to 400 μM compound, single experimental analysis, read-out: Kd (dissociation constant)) was found to be 235 µM. The “binding to KRAS-GDP (waterLOGSY)” value in data set [2] is listed as “poor binding”. Besides, the solubility in data set [3] worked out at 446 µM (≈ 116 µg/mL).

For the compound `COc1nc(-c2cccc3c2OCCO3)ccc1Nc1ccc(CN(C)C)cc1` [Abd-7], the “inhibition of ERK1/2 phosphorylation” value in data set [4] and in data set [5] was “diminution of pERK levels” each time.

The values are drawn from paper PMC6085350, “Small molecule inhibitors of RAS-effector protein interactions derived using an intracellular antibody fragment” (Nature Communications, 2018).
